Active and inactive are the calls of the source. How the calls were made is not given here.
Test system: M. tuberculosis BioA-TetON overexpression strain, growth IC90
Experiment: PubChem AID 743351

Question: Which IC90 does the source give for `CC(=O)c1ccc(N2CCN(C(=O)c3ccc4c(c3)OCO4)[C@H](C)C2)cc1` here?
Answer: > 50 µM (inactive)

Question: For `CCCCCCCC(=O)N1CC[C@@H]2[C@@H](CO)N(C)c3ccc(-c4cccc(F)c4)cc3[C@@H]21`, which IC90 is on record?
Answer: > 50 µM (inactive)

Question: Which IC90 does the source give for `CCCNC(=O)N1CC[C@@H]2[C@@H](CO)N(C)c3ccc(-c4ccc(F)cc4)cc3[C@@H]21` here?
Answer: > 50 µM (inactive)

Question: For `CN1c2ccc(-c3cccc(F)c3)cc2[C@H]2[C@H](CCN2C(=O)CCCCCCN)[C@H]1CO`, which IC90 is on record?
Answer: > 50 µM (inactive)

Question: With `CC(=O)c1ccc(N2CCN(C(=O)c3ccc4c(c3)OCO4)CC2)cc1` as the compound, how does the IC90 read?
Answer: > 50 µM (inactive)

Question: `COc1ccc(NC(=O)N2CC[C@@H]3[C@@H](CO)N(C)c4ccc(-c5ccc(F)cc5)cc4[C@@H]32)cc1` was tested. Which IC90 did it give?
Answer: > 50 µM (inactive)

Question: How did the IC90 turn out when `COc1cccc(NC(=O)N2CC[C@@H]3[C@@H](CO)N(C)c4ccc(-c5cccc(F)c5)cc4[C@@H]32)c1` was run?
Answer: > 50 µM (inactive)

Question: Which IC90 does the source give for `CN1c2ccc(-c3cccc(F)c3)cc2[C@@H]2[C@@H](CCN2C(=O)c2ccc3c(c2)OCO3)[C@H]1CO` here?
Answer: > 50 µM (inactive)

Question: How did the IC90 turn out when `CN1c2ccc(-c3cccc(F)c3)cc2[C@H]2[C@H](CCN2C(=O)Nc2ccccc2F)[C@H]1CO` was run?
Answer: > 50 µM (inactive)

Question: `COC(=O)CCCCCCC(=O)N1CC[C@@H]2[C@@H](CO)N(C)c3ccc(-c4cccc(F)c4)cc3[C@@H]21` was tested. Which IC90 did it give?
Answer: > 50 µM (inactive)

Question: For `CC(C)NC(=O)N1CC[C@@H]2[C@@H](CO)N(C)c3ccc(-c4cccc(F)c4)cc3[C@@H]21`, which IC90 is on record?
Answer: > 50 µM (inactive)

Question: For `CN(C)C(=O)c1ccc(N2CCN(C(=O)c3ccc4c(c3)OCO4)CC2)cc1`, which IC90 is on record?
Answer: > 50 µM (inactive)

Question: Which IC90 does the source give for `CN1c2ccc(-c3cccc(F)c3)cc2[C@H]2[C@H](CCN2C(=O)Cc2cccnc2)[C@H]1CO` here?
Answer: > 50 µM (inactive)

Question: Which IC90 does the source give for `CNC(=O)c1ccc(N2CCN(C(=O)c3ccc4c(c3)OCO4)CC2)cc1` here?
Answer: > 50 µM (inactive)

Question: Which IC90 does the source give for `CN1c2ccc(-c3ccc(F)cc3)cc2[C@H]2[C@H](CCN2C(=O)Nc2ccc(F)cc2)[C@H]1CO` here?
Answer: > 50 µM (inactive)

Question: `CN1c2ccc(-c3ccc(F)cc3)cc2[C@H]2[C@H](CCN2C(=O)Cc2ccccn2)[C@H]1CO` was tested. Which IC90 did it give?
Answer: > 50 µM (inactive)

Question: `CN1c2ccc(-c3ccc(F)cc3)cc2[C@H]2[C@H](CCN2C(=O)Cc2cccnc2)[C@H]1CO` was tested. Which IC90 did it give?
Answer: > 50 µM (inactive)

Question: Which IC90 does the source give for `COCC(=O)N1CC[C@@H]2[C@@H](CO)N(C)c3ccc(-c4cccc(F)c4)cc3[C@@H]21` here?
Answer: > 50 µM (inactive)

Question: Which IC90 does the source give for `CCC(=O)N1CC[C@@H]2[C@@H](CO)N(C)c3ccc(-c4ccc(F)cc4)cc3[C@@H]21` here?
Answer: > 50 µM (inactive)

Question: `COc1ccccc1C(=O)N1CCN(c2ccc(C(C)=O)cc2)CC1` was tested. Which IC90 did it give?
Answer: > 50 µM (inactive)

Question: `CNS(=O)(=O)c1ccc(N2CCN(C(=O)c3ccc4c(c3)OCO4)CC2)cc1` was tested. Which IC90 did it give?
Answer: > 50 µM (inactive)

Question: Which IC90 does the source give for `CN1c2ccc(-c3cccc(F)c3)cc2[C@@H]2[C@@H](CCN2C(=O)c2ccc3c(c2)OCO3)[C@@H]1CO` here?
Answer: > 50 µM (inactive)

Question: For `CC(=O)c1ccc(N2CC3(CN(C(=O)c4ccc5c(c4)OCO5)C3)C2)cc1`, which IC90 is on record?
Answer: > 50 µM (inactive)

Question: How did the IC90 turn out when `COc1ccccc1NC(=O)N1CC[C@@H]2[C@@H](CO)N(C)c3ccc(-c4cccc(F)c4)cc3[C@@H]21` was run?
Answer: > 50 µM (inactive)

Question: `COc1ccccc1NC(=O)N1CC[C@@H]2[C@@H](CO)N(C)c3ccc(-c4ccc(F)cc4)cc3[C@@H]21` was tested. Which IC90 did it give?
Answer: > 50 µM (inactive)

Question: With `CN1c2ccc(-c3ccc(F)cc3)cc2[C@H]2[C@H](CCN2C(=O)Nc2cc(F)ccc2F)[C@H]1CO` as the compound, how does the IC90 read?
Answer: > 50 µM (inactive)

Question: With `CN1c2ccc(-c3cccc(F)c3)cc2[C@H]2[C@H](CCN2C(=O)c2ccc3c(c2)OCO3)[C@@H]1CO` as the compound, how does the IC90 read?
Answer: > 50 µM (inactive)

Question: `CC(C)NC(=O)N1CC[C@@H]2[C@@H](CO)N(C)c3ccc(-c4ccc(F)cc4)cc3[C@@H]21` was tested. Which IC90 did it give?
Answer: > 50 µM (inactive)

Question: Which IC90 does the source give for `COc1ccc(NC(=O)N2CC[C@@H]3[C@@H](CO)N(C)c4ccc(-c5cccc(F)c5)cc4[C@@H]32)cc1` here?
Answer: > 50 µM (inactive)

Question: How did the IC90 turn out when `CC(=O)c1ccc(N2CCN(C(=O)c3ccccc3Cl)CC2)cc1` was run?
Answer: > 50 µM (inactive)

Question: Which IC90 does the source give for `CC(=O)c1ccc(NCCNC(=O)c2ccc3c(c2)OCO3)cc1` here?
Answer: > 50 µM (inactive)

Question: For `CN1c2ccc(-c3cccc(F)c3)cc2[C@H]2[C@H](CCN2C(=O)CCCCCCC(=O)O)[C@H]1CO`, which IC90 is on record?
Answer: > 50 µM (inactive)

Question: Which IC90 does the source give for `CC(=O)c1ccc(N2CCN(C(=O)c3ccccc3F)CC2)cc1` here?
Answer: > 50 µM (inactive)

Question: With `CN1c2ccc(-c3cccc(F)c3)cc2[C@H]2[C@H](CCN2C(=O)Cc2ccccc2)[C@H]1CO` as the compound, how does the IC90 read?
Answer: > 50 µM (inactive)

Source: PubChem BioAssay AID743351 (Broad Institute, 2014)
